Results as given in patent US20180221384A1, “COMPOSITIONS OF MIDAZOLAM FOR BUCCAL ADMINISTRATION IN THE TREATMENT OF SEIZURES TO OBTAIN RAPID ONSET OF ACTION” (SWIPP AB, priority 2015, published 2018).
Structures can show the parent of a compound that is named as a salt. Where two headings read alike, the source gives them in different places.

Legend:
[1] = cited from earlier work
[2] = cited from earlier work; remark: listed apart in the source
[3] = Pilot in vivo study: midazolam film preparation applied on the oro-mucosal membrane, plasma levels by LC-MS/MS; details: for Corresponding plasma levels in children weighing 20 kg: at least; for Side-effects: healthy volunteers
Protocol: Film preparations weighing approximately 0.07 g (1×2 cm) containing 2 mg midazolam hydrochloride were applied on the oro-mucosal membrane in healthy volunteers (body weight 90 kg). Venous blood samples were drawn 6, 12 and 18 minutes after application.
Film preparations weighing approximately 0.07 g (1×2 cm) containing 1 mg midazolam hydrochloride were applied on the oro-mucosal membrane in healthy volunteers (body weight 90 kg). Venous blood samples were drawn 6, 12 and 18 minutes after application.

[4] = midazolam solution 5 mg buccal, healthy volunteers (Schwagmeier et al. 1998)
[5] = human, plasma, other: applied on the oro-mucosal membrane, 1 mg

Cc1ncc2n1-c1ccc(Cl)cc1C(c1ccccc1F)=NC2 [midazolam, Midazolam]
Time to plasma concentration of 5 ng/mL ([1]; approx. 10 mg midazolam, adult volunteers, most of the subjects (Scott et al. 1998)): 5 to 10 min
Blood levels [1, 4]: 5 to 10 ng/mL
Time to blood levels of 5-10 ng/mL [1, 4]: 3 to 6 min
Time to anticonvulsive effect ([2]; adults administered 10-20 mg (Nakken et al. 2011)): ≤ 5 min
Time to anticonvulsive effect ([2]; children, buccal dose 0.2 mg/kg (Talukbar et al. 2009)): ≤ 5 min
Blood levels ([3]; buccal film or wafer, dose 2 mg, adult volunteers (summary in description)): 5 to 10 ng/mL
Plasma level ([3]; buccal film, dose 1 mg midazolam, adult 90 kg (summary in description)): about 5 ng/mL
Plasma level (in words) ([3]; buccal film, dose 1 mg, adults average body weight 90 kg): therapeutic levels

Cc1ncc2n1-c1ccc(Cl)cc1C(c1ccccc1F)=NC2 [midazolam hydrochloride, Midazolam hydrochloride]
Corresponding plasma levels in children weighing 20 kg ([3]; extrapolated from adults given 1 mg film): 15 to 20 ng/mL
Corresponding plasma levels in children weighing 20 kg ([3]; extrapolated from adults given 2 mg film): 15 to 50 ng/mL
Side-effects ([3]; film containing 1 mg midazolam hydrochloride): No side-effects were observed
Side-effects ([3]; film containing 2 mg midazolam hydrochloride): No side-effects were observed
Average plasma levels ([3]; film containing 2 mg midazolam hydrochloride, oro-mucosal, healthy volunteers 90 kg): 5 ng/mL
concentration at 6 min [3, 5]: 1 ng/mL
concentration at 12 min [3, 5]: 4.6 ng/mL
